US20260226019A1, “NEGATIVE ALLOSTERIC MODULATORS OF METABOTROPIC GLUTAMATE RECEPTOR 2” (Vanderbilt University, priority 2023, published 2026)

Experiments:
[1] = test system: group II mGlu receptors (mGlu2 and mGlu3); settings: CFS model; cited from earlier work
human mGlu2 = target: T1, human mGlu2 (Homo sapiens, UniProt Q14416); test: mGlu GIRK cell-based thallium flux assay, human mGlu2; settings: HEK-293 cells co-expressing human mGlu2 and GIRK, EC80 glutamate, single experiment
T1 construct: expressed in transfected cells; host or cells: HEK-293 stably co-expressing GIRK channels
Procedure: (§1) Human embryonic kidney (HEK-293) cell lines stably co-expressing human or rat mGlu2 and G protein-coupled inwardly rectifying potassium (GIRK) channels, or human mGlu3 and GIRK, were used for in vitro evaluation of compound activity in thallium flux assay using a fluorescent thallium indicator dye.
(§2) The day before the assay, GIRK cells co-expressing human mGlu3, human or rat mGlu2, as described above, were plated in black-walled, clear-bottomed, amine-coated 384-well plates at a density of 15,000 cells/[…]/well in the assay medium (glutamine-depleted basal DMEM supplemented with 10% dialyzed FBS, 20 mM HEPES, 1 mM sodium pyruvate). Cells were incubated at 37° C. in the presence of 5% CO2. The next day, assay buffer (Hanks balanced salt solution, 20 mM HEPES, 4.16 mM sodium bicarbonate, pH 7.2) was prepared to dilute compounds and Thallos AM fluorescent dye solution. The 2× Thallos dye solution (final concentration 0.34 μM to the cells) was prepared by mixing the dye stock (2.97 mM in DMSO) to 1:1 with 10% pluronic acid before adding to the assay buffer. Cells were washed with assay buffer using a microplate washer to remove the medium, resulting in 20 μL of buffer remaining in each well. […] During the cell dye loading incubation period, a 10-point concentration serial dilution of compound was created from a 10 mM DMSO compound stock by performing a 1:3 serial dilution in DMSO using the Bravo liquid handler. The 2× compound plate was generated by transferring 0.24 μL of the diluted compound in each well to a daughter plate using an Echo acoustic liquid handler. This is further diluted in 40 μL assay buffer, resulting in a range from […] to 1.5 nM final concentration in the assay. The agonist plate (5×) was prepared to include EC80 glutamate concentration (a concentration to elicit 80% of a maximally effective glutamate concentration) in thallium buffer (125 mM sodium bicarbonate, 1 mM magnesium sulfate, 1.8 mM calcium sulfate, 5 mM glucose, 10 mM HEPES, pH 7.2, 12.5 mM thallium sulfate).
(§3) After dye-loading, cell plates were washed with assay buffer to remove excess extracellular dye using a microplate washer, resulting in 20 μL of buffer remaining in each well. After a ten-minute equilibration period, cell, compound and agonist plates were loaded into a Hamamatsu μCell kinetic imaging plate reader equipped with liquid handler to monitor fluorescence changes at 480 nm excitation and 540 nm emission settings. Briefly, after collection of baseline fluorescence, 20 μL of compound was added and incubated for two minutes and twenty seconds. This is immediately followed by adding 10 μL of glutamate-thallium buffer to the wells containing compound. The fluorescent signal was monitored an additional 2.5 minutes after the glutamate addition. Multiple reference wells containing no compound received either no glutamate (for a baseline reference), EC80 glutamate, or ECmax glutamate (for normalization to maximum response). […] Each compound concentration series occurred one time in each plate, and replicates from two or three plates were used in each experimental run. Thallium solutions were handled and disposed of according to guidelines from the Vanderbilt University Chemical Safety department.
(§4) Data were normalized using a static ratio function (F/F0) by dividing every fluorescent measurement by the initial fluorescent value for the corresponding well. The increase in signal resulting from the glutamate/thallium addition of the second add was measured by determining the slope from 3 seconds to 13 seconds after the addition. The average of all baseline slopes (no compound, no glutamate) was determined and this value was subtracted from all other slope values. The average of all ECmax slopes was determined and this value was used to normalize the baseline-corrected slopes to a percent max value (% Emax).

human mGlu3 = target: T2, human mGlu3 (Homo sapiens, UniProt Q14832); test: mGlu GIRK cell-based thallium flux assay, human mGlu3; settings: HEK-293 cells co-expressing human mGlu3 and GIRK, EC80 glutamate, single experiment
T2 construct: expressed in transfected cells; host or cells: HEK-293 stably co-expressing GIRK channels
Procedure: as §1, §2, §3, §4

[2] = test system: group II mGlu receptors (mGlu2 and mGlu3); settings: cited from earlier work

T2 sequence (Q14832 23-879): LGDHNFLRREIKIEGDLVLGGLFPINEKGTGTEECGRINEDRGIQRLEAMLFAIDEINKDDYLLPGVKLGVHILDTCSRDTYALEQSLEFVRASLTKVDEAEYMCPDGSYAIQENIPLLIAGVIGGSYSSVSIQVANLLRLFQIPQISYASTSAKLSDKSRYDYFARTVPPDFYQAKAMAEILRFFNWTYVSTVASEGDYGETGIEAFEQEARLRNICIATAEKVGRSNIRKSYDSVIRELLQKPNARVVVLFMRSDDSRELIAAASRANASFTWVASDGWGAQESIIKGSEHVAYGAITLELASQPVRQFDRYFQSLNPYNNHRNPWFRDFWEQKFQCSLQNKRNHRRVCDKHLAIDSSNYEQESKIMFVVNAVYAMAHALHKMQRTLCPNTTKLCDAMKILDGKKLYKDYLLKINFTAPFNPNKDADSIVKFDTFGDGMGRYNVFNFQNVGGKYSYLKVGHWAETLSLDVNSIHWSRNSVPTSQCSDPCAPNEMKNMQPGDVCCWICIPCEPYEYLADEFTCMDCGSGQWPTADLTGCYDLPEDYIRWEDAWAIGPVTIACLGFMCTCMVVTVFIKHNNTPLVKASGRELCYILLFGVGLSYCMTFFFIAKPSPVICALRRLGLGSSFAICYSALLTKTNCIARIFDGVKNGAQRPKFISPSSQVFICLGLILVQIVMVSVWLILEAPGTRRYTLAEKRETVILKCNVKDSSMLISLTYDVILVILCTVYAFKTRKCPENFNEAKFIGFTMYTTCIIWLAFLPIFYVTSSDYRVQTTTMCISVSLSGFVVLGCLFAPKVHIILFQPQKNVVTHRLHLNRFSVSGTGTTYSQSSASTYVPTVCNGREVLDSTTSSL
T1 sequence (Q14416 19-872): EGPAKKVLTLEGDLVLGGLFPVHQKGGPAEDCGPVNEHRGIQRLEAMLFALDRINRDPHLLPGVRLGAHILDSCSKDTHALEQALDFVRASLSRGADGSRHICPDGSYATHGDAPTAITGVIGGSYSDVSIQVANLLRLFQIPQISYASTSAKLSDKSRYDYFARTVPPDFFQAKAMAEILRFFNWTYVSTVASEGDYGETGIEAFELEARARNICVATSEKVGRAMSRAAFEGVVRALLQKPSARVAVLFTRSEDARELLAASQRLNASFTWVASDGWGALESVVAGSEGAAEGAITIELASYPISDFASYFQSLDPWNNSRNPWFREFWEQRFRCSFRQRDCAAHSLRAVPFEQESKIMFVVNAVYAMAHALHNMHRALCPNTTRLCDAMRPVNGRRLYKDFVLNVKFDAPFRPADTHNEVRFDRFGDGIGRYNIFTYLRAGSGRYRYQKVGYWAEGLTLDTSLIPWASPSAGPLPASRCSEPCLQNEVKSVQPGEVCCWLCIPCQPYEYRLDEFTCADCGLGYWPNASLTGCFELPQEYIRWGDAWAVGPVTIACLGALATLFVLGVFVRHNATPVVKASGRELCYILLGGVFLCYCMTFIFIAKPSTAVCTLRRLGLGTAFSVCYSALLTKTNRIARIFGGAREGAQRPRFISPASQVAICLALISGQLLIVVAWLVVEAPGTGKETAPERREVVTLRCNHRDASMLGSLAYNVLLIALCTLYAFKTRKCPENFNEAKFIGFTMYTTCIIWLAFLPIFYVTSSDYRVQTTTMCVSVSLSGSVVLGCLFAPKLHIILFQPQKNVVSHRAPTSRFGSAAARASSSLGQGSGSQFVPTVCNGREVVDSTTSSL

IC50 (human mGlu2) [nM] | Human mGlu3 GIRK IC50 (nM) (human mGlu3) | IC50 (human mGlu3) [nM] | SMILES | other results
– | – | – | COCCCC/C(=N\OCCN)c1ccc(C(F)(F)F)cc1 [fluvoxamine] | freezing behavior [1]: significantly decreased
361 | Inactive | – | CC1(C#N)CCN(c2cc(-c3ccc(F)cc3F)cc3c2CNC3=O)C1 (centres unmarked) [Compound A7, 1-(6-(2,4-difluorophenyl)-1-oxoisoindolin-4-yl)-3-methylpyrrolidine-3-carbonitrile] | –
180 | – | 4620 | O=C1NCc2c(CN3CCSCC3)cc(-c3ccc(F)cc3F)cc21 [Compound B1, 6-(2,4-difluorophenyl)-4-(thiomorpholinomethyl)isoindolin-1-one] | –
1230 | – | > 10000 | O=C1NCc2c1cc(-c1ccc(F)cc1F)cc2-c1ccc(C2CC2)nc1 [Compound 36, 4-(6-cyclopropylpyridin-3-yl)-6-(2,4-difluorophenyl)isoindolin-1-one] | –
3950 | – | > 10000 | CC1(C)CCN(c2cc(-c3ccc(F)cc3F)cc3c2CNC3=O)CC1 [Compound A16, 6-(2,4-difluorophenyl)-4-(4,4-dimethylpiperidin-1-yl)isoindolin-1-one] | –
298 | Inactive | – | O=C1NCc2c1cc(-c1ccc(F)cc1F)cc2-c1ccc[nH]c1=O [Compound 64, 6-(2,4-difluorophenyl)-4-(2-oxo-1,2-dihydropyridin-3-yl)isoindolin-1-one] | –
198 | – | 6410 | O=C1NCc2c1cc(-c1ccc(F)cc1F)cc2-c1ccc2nccn2c1 [Compound 38, 6-(2,4-difluorophenyl)-4-(imidazo[1,2-a]pyridin-6-yl)isoindolin-1-one] | –
380 | – | > 10000 | O=C1NCc2c1cc(-c1ccc(F)cc1F)cc2N1CCOCC1 [Compound A4, 6-(2,4-difluorophenyl)-4-morpholinoisoindolin-1-one] | –
185 | Inactive | – | CC(=O)Nc1ccc(-c2cc(-c3ccc(F)cc3F)cc3c2CNC3=O)cn1 [Compound 34, N-(5-(6-(2,4-difluorophenyl)-1-oxoisoindolin-4-yl)pyridin-2-yl)acetamide] | –
203 | Inactive | – | O=C1NCc2c1cc(-c1ccc(F)cc1F)cc2-c1cnn(C2CCOC2)c1 (centres unmarked) [Compound 63, 6-(2,4-difluorophenyl)-4-(1-(tetrahydrofuran-3-yl)-1H-pyrazol-4-yl)isoindolin-1-one] | –
204 | Inactive | – | Cn1nc(C(F)(F)F)cc1-c1cc(-c2ccc(F)cc2F)cc2c1CNC2=O [Compound 78, 6-(2,4-difluorophenyl)-4-(1-methyl-3-(trifluoromethyl)-1H-pyrazol-5-yl)isoindolin-1-one] | –
555 | – | 3960 | CSc1ncc(-c2cc(-c3ccc(F)cc3F)cc3c2CNC3=O)cn1 [Compound 39, 6-(2,4-difluorophenyl)-4-(2-(methylthio)pyrimidin-5-yl)isoindolin-1-one] | –
865 | – | > 10000 | CC(C)Oc1ncccc1-c1cc(-c2ccc(F)cc2F)cc2c1CNC2=O [Compound 75, 6-(2,4-difluorophenyl)-4-(2-isopropoxypyridin-3-yl)isoindolin-1-one] | –
291 | Inactive | – | O=C1NCc2c1cc(-c1ccc(F)cc1F)cc2-c1cnn(C2CC2)c1 [Compound 18, 4-(1-cyclopropyl-1H-pyrazol-4-yl)-6-(2,4-difluorophenyl)isoindolin-1-one] | –
490 | – | 9870 | COC1CCCN(c2cc(-c3ccc(F)cc3F)cc3c2CNC3=O)C1 (centres unmarked) [Compound A18, 6-(2,4-difluorophenyl)-4-(3-methoxypiperidin-1-yl)isoindolin-1-one] | –
126 | – | > 10000 | CC(C)n1nccc1-c1cc(-c2ccc(F)cc2F)cc2c1CNC2=O [Compound 30, 6-(2,4-difluorophenyl)-4-(1-isopropyl-1H-pyrazol-5-yl)isoindolin-1-one] | –
157 | – | > 10000 | O=C1NCc2c1cc(-c1ccc(F)cc1F)cc2-c1ccc(F)nc1F [Compound 73, 6-(2,4-difluorophenyl)-4-(2,6-difluoropyridin-3-yl)isoindolin-1-one] | –
163 | Inactive | – | Cc1cc(-c2cc(-c3ccc(F)cc3F)cc3c2CNC3=O)cnn1 [Compound 13, 6-(2,4-difluorophenyl)-4-(6-methylpyridazin-4-yl)isoindolin-1-one] | –
218 | Inactive | – | O=C1NCc2c1cc(-c1ccc(F)cc1F)cc2N1CCn2nccc21 [Compound A2, 6-(2,4-difluorophenyl)-4-(2,3-dihydro-1H-imidazo[1,2-b]pyrazol-1-yl)isoindolin-1-one] | –
2970 | Inactive | – | O=C1NCc2c1cc(-c1ccc(F)cc1F)cc2N1CCS(=O)(=O)CC1 [Compound A3, 6-(2,4-difluorophenyl)-4-(1,1-dioxidothiomorpholino)isoindolin-1-one] | –
528 | – | > 10000 | O=C1NCc2c1cc(-c1ccc(F)cc1F)cc2-c1cccnc1N1CCCC1 [Compound 66, 6-(2,4-difluorophenyl)-4-(2-(pyrrolidin-1-yl)pyridin-3-yl)isoindolin-1-one] | –
435 | – | > 10000 | Cc1nn(CC(C)(C)O)c(C)c1-c1cc(-c2ccc(F)cc2F)cc2c1CNC2=O [Compound 41, 6-(2,4-difluorophenyl)-4-(1-(2-hydroxy-2-methylpropyl)-3,5-dimethyl-1H-pyrazol-4-yl)isoindolin-1-one] | –
181 | Inactive | – | Cn1cc(-c2cc(-c3ccc(F)cc3F)cc3c2CNC3=O)cn1 [Compound 19, 6-(2,4-difluorophenyl)-4-(1-methyl-1H-pyrazol-4-yl)isoindolin-1-one] | –
66 | Inactive | – | O=C1NCc2c1cc(-c1ccc(F)cc1F)cc2-c1cnco1 [Compound 6, 6-(2,4-difluorophenyl)-4-(oxazol-5-yl)isoindolin-1-one] | –
3810 | Inactive | – | CC(C)n1nccc1-c1cc(C2=CCC3(CC2)OCCO3)cc2c1CNC2=O [Compound 87, 4-(1-isopropyl-1H-pyrazol-5-yl)-6-(1,4-dioxaspiro[4.5]dec-7-en-8-yl)isoindolin-1-one] | –
175 | Inactive | – | CC(C)n1nccc1-c1cc(C2=CCOCC2)cc2c1CNC2=O [Compound 86, 6-(3,6-dihydro-2H-pyran-4-yl)-4-(1-isopropyl-1H-pyrazol-5-yl)isoindolin-1-one] | –
– | – | – | CCCCCCCOC(=O)[C@@]1(F)[C@@H]2C[C@@H](OCc3ccc(Cl)c(Cl)c3)[C@@](N)(C(=O)O)[C@@H]21 [BCI-838] | Dutch APP transgene-associated learning and memory impairment ([2]; three months of treatment): reversed; anxiolytic effects ([2]; three months of treatment): anxiolytic effects; levels of monomeric and oAβ peptides in the hippocampus and cortex ([2]; three months of treatment, two AD mouse models): decreased; hippocampal progenitor cell proliferation ([2]; wild-type and Alzheimer's diseased mice, 3 months): stimulated
104 | – | > 10000 | Cc1nc(F)ccc1-c1cc(-c2ccc(F)cc2F)cc2c1CNC2=O [Compound 72, 6-(2,4-difluorophenyl)-4-(6-fluoro-2-methylpyridin-3-yl)isoindolin-1-one] | –
> 10000 | – | > 10000 | O=C1NCc2c1cc(-c1ccc(F)cc1F)cc2C1CCNC1 (centres unmarked) [Compound B6, 6-(2,4-difluorophenyl)-4-(pyrrolidin-3-yl)isoindolin-1-one] | –
